Assay: gradient 5% acetonitrile 3 min, to 50% in 2 min, to 85% in 15 min, held 3 min, 100 µL/min
Conditions: column: Zorbax Extend-C18 2.1 x 50 mm; eluents: water / acetonitrile, 0.1% formic acid
Procedure, shortened: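 Retention times of pure standards were taken from adduct peaks that were selected by computer and manually inspected. Over 3 months, mixtures of ~100 molecules were run by HPLC–quadrupole time-of-flight mass spectrometry in positive and negative ionization mode. The Zorbax Extend-C18 column (2.1 × 50 mm, 1.8 μm) ran at 100 μL/min in water and acetonitrile, each containing 0.1% formic acid, with 40 μL dead volume and 900 μL dwell volume.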

| Compound | RP-LC retention time |
| --- | --- |
| Cc1cc(C)n(Cc2nc(-c3ccc(NC(=O)COc4ccccc4)cc3)oc2C)n1 | 974 s |
| O=C(Nc1nc(CC(=O)N2CCCc3ccccc32)cs1)c1ccco1 | 743 s |
| O=C(NCc1cscn1)C1CCN(S(=O)(=O)c2cccc(Cl)c2)CC1 | 747 s |
| COC(=O)c1ccc(C(=O)Nc2ccc(CC(=O)NC3CC3)cc2)cc1 | 657 s |
| CCCC(=O)Nc1cccc(NC(=O)c2ccccc2Br)c1 | 863 s |
| COc1ccc(Cl)cc1S(=O)(=O)c1cnc(N2CCC(C)CC2)nc1N | 1040 s |
| CCOC(=O)CCNC(=O)N1CCc2cc(-c3ccc(C(=O)N4CCOCC4)cc3)ccc21 | 724 s |
| COc1ccc(-c2nc(-c3ccc4ncn(C(C)C)c4c3)no2)c(OC)c1 | 729 s |
| CC1CCN(C2=NCCN2C(=O)c2ccccc2Cl)CC1 | 655 s |
| Cc1cc(C)c(-c2noc(C)n2)c(NC(=O)c2ccc(Cl)cc2)n1 | 790 s |
| CCSCCOC(=O)C1=C(C)NC(=O)NC1c1cccc(OC)c1OC (stereo not given) | 792 s |
| CCCN(c1ccccc1F)S(=O)(=O)c1ccc2c(c1)N(C(C)=O)CCCS2 | 993 s |
| COc1ccc(-c2nc3cc(C)ccn3c2Nc2ccc3c(c2)OCO3)cc1 | 646 s |
| COc1cc(N2CCN(S(=O)(=O)c3ccccc3F)CC2)nc(OC)n1 | 816 s |
| O=C(NCCc1csc(-c2ccccc2)n1)c1ccccc1C(F)(F)F | 883 s |
| O=C(Cc1ccccc1Cl)N1CCC2(C1)C(=O)Nc1ccccc12 (stereo not given) | 758 s |
| CCC(=O)Nc1ccc(-n2cnc(C(=O)NC(C)c3ccc(C)cc3)c2)nc1 (stereo not given) | 781 s |
| O=C(CCc1nc2ccccc2n(CC(=O)NC2CCc3ccccc32)c1=O)NC1CCCCC1 (stereo not given) | 879 s |
| O=C(NCC1CCCO1)C1CCCN(c2ncccc2-c2noc(C3CCC3)n2)C1 (stereo not given) | 770 s |
| COc1ccc(-n2c(=O)c3sccc3n(Cc3nc(-c4ccccc4)no3)c2=O)cc1 | 953 s |
| O=C1CCCc2cc(S(=O)(=O)N3CCCC3C(=O)N3CCN(c4ccccc4)CC3)ccc2N1 (stereo not given) | 750 s |
| CC(C)N1CCn2cc(S(=O)(=O)Nc3cccc(F)c3)cc2C1=O | 751 s |

| Compound | RP-LC retention time |
| --- | --- |
| O=C(Cn1cccc1-c1nc(-c2ccc(Cl)cc2)cs1)N1CCN(c2ncccn2)CC1 | 1100 s |
| CCCC(=O)Nc1ccc(CCc2nc3ccc(C(=O)NCC(C)C)cc3[nH]2)cc1 | 646 s |
| CCCC(C)NC(=O)c1cc2c(s1)N(C)CCCC2 (stereo not given) | 974 s |
| O=C(Nc1ccc2c(c1)CCN2S(=O)(=O)c1ccccc1)Nc1ccccc1Cl | 1030 s |
| Cc1ccc(NC(=O)Nc2cccn3nc(C(C)C)nc23)cc1 | 964 s |
| CC(=O)N1CCN(c2nc3c(s2)CC(C(=O)NCc2cc(F)cc(F)c2)CC3)CC1 (stereo not given) | 597 s |
| CC(CCNC(=O)c1cc(S(=O)(=O)N2CCCC2)ccc1Cl)N1CCCC1 (stereo not given) | 601 s |
| O=C(Cc1cccs1)N1CCN(Cc2nc(-c3ccc(Cl)cc3)cs2)CC1 | 754 s |
| CCCc1ccc(S(=O)(=O)N2CCC(c3noc(-c4cccc(C)c4)n3)CC2)cc1 | 1370 s |
| Cc1ccc(C)c(NC(=O)NCCc2cn(C)c3ncccc23)c1 | 704 s |
| Cc1ccc(C2Cn3cnc(C(=O)N4CCC(C(=O)NCc5cc(F)ccc5F)CC4)c3CO2)cc1 (stereo not given) | 808 s |
| O=C(c1ccc(Cl)s1)N1CCCCC1c1nncn1CC1CC1 (stereo not given) | 800 s |
| O=C(NCc1csc(C2CCN(C(=O)Cc3ccc(Cl)cc3)CC2)n1)C1CC1 | 747 s |
| Cc1ccc(CNC(=O)c2cccc(-c3nc4cccnc4n3C(C)C)c2)o1 | 793 s |
| O=C(NCCc1csc(-c2ccccc2)n1)[C@H]1CCCN1C(=O)c1ccco1 | 747 s |
| O=C1NCCCn2cc(S(=O)(=O)NCc3ccccc3Cl)cc21 | 686 s |
| CCN1CCN(c2cc(C(=O)O)c3cc(NS(=O)(=O)c4cccc(C)c4)ccc3n2)CC1 | 596 s |
| COc1ccc2c(C)c(C(=O)NCCn3ncccc3=O)oc2c1 | 669 s |
| COC(=O)c1ccc2c(=O)n(-c3cc(OC)cc(OC)c3)c(N3CCC(C)CC3)nc2c1 | 1210 s |
| COCCCNC(=O)c1cc(-c2ccc(C)cc2)nc2n[nH]c(-c3ccc(C)cc3)c12 | 881 s |
| CC(C)c1cc(C(F)(F)F)nc(NNc2nc(C(C)C)cc(C(F)(F)F)n2)n1 | 924 s |
| Cc1ccc(-c2noc(C(=O)N3CCCC3)n2)cc1S(=O)(=O)N1CCN(c2ncccn2)CC1 | 959 s |

| Compound | RP-LC retention time |
| --- | --- |
| O=S(=O)(c1ccc(-c2nnc(C3CCCC3)o2)o1)N1CCCCC1 | 1010 s |
| Cc1ccc(S(=O)(=O)Nc2cccc(-c3cn4ccccc4n3)c2)cc1C | 648 s |
| Cc1cc(Cl)ccc1S(=O)(=O)N1CCC2(CC1)c1nccn1CCN2C | 697 s |
| CN(Cc1ccccc1)C(=O)CCNc1c(-c2cccc(F)c2)nc2cnccn12 | 814 s |
| O=C(Nc1cccc(Cl)c1)C1CCN(S(=O)(=O)c2cc(C(=O)N3CCCC3)cs2)CC1 | 884 s |
| Cc1ccc(Nc2c(-c3ccc(Br)cc3)nc3cnccn23)c(C)c1 | 1170 s |
| CCn1cc(CCNC(=O)Nc2cccc(C)c2C)c2cccnc21 | 720 s |
| Cc1ccc(C)c(NC(=O)C2CCN(S(=O)(=O)c3cc(C(=O)N4CCCC4)n(C)c3)CC2)c1 | 747 s |
| COc1ccc(OC)c(NC(=O)N(C)CCc2noc(COc3ccc(Cl)cc3)n2)c1 | 1000 s |
| CCOC(=O)C1CCN(C(=O)CN2C(=O)COc3ccc(C(=O)N(C)C)cc32)CC1 | 648 s |
| Clc1ccc(-c2cc3c(N4CCN(C5CCCCC5)CC4)nccn3n2)cc1 | 806 s |
| CCc1ccccc1N(C)C(=O)Cn1ccc2c(=O)n(C)c(=O)n(C)c21 | 735 s |
| COc1cc(OC2CCN(C)CC2)ccc1Nc1ncc2c(n1)n(C1CCCC1)c(=O)n2C | 654 s |
| CC(C)C(=O)N1CCN(c2nc(CN3CCCCC3)cs2)CC1 | 603 s |
| COc1cc(NC(=O)c2cc(C(C)C)n3nccc3n2)cc(OC)c1OC | 915 s |
| COc1ccc(C)cc1NS(=O)(=O)c1ccccc1-c1nc(-c2ccc(F)cc2)no1 | 1280 s |
| Cc1ccc(CNC(=O)CN2CCN(C(=O)Nc3ccc(Cl)cc3)CC2=O)o1 | 725 s |
| CCN(Cc1cccnc1)C(=O)CN(c1ccc(OC)nc1)S(=O)(=O)c1ccccc1C | 734 s |
| Cc1cccc2nnc(N3CCC(C(=O)N4CCC(C)CC4)CC3)n12 | 663 s |
| O=C(Cc1ccc(F)cc1)NC1CCN(c2nnc3ccccn23)CC1 | 629 s |
| CCNc1cc(N2CCCC(CCC(=O)Nc3ccc(OCC)cc3)C2)ncn1 (stereo not given) | 699 s |
